Data on 2 compounds can be found in patent US20250345314A1 (PUSAN NATIONAL UNIVERSITY INDUSTRY-UNIVERSITY COOPERATION …, priority 2024, published 2025).

SMILES strings stand for the structures.

Holding throughout (type): cell-based
In data set [1] the test system is mesenchymal stem cells UCB #001, UCB #006, and UCB #192. The experiment in a line: Cell viability of mesenchymal stem cells by CCK-8 assay. As for the experimental part:
The effects of rapamycin on the survival rate of mesenchymal stem cells and the secretion of HGF and PGE2 were confirmed. Specifically, the mesenchymal stem cells UCB #001, UCB #006, and UCB #192 were treated with rapamycin at various concentrations of 1.25, 2.5, 5, 10, 20, 40, and 80 ng/ml for 24 hours.
(§1) The effects of pirfenidone, a drug used clinically as an anti-fibrotic drug, on the survival rate of mesenchymal stem cells and the secretion of HGF and PGE2 were confirmed in the same manner as rapamycin. The results of confirming the survival rate of mesenchymal stem cells according to pirfenidone treatment were shown in FIG. 3A, and the results of analyzing HGF and PGE2 secretion were shown in FIGS. 3B and 3C, respectively.
(Tetrazolium assays rely on reduction of a dye to a coloured formazan, in cell work by metabolically active cells.)

The test system is the same in data set [2]. The experiment in a line: HGF secretion of mesenchymal stem cells by ELISA. The procedure: (§2) In addition, changes in HGF and PGE2 secretion in mesenchymal stem cells treated with rapamycin at various concentrations were analyzed by ELISA. The results of analyzing HGF and PGE2 secretion were shown in FIGS. 2B and 2C, respectively.
as §1

Data set [3] shares this test system. As to the kind of experiment: PGE2 secretion of mesenchymal stem cells by ELISA. To be noted: pirfenidone treatment. As for the experimental part:
as §2, §1
In general terms: An ELISA detects its analyte on a solid surface through an enzyme-linked reagent.

As to `Cc1ccc(=O)n(-c2ccccc2)c1` [pirfenidone], the cell viability entry in data set [1] (UCB #001, pirfenidone 1 to 6 μg/ml, CCK-8) was “increased”; in data set [1] (UCB #006 and UCB #192, pirfenidone 1 to 10 μg/ml, CCK-8) it was “increased”. Besides, the “concentration at which cytotoxicity was exhibited” value in data set [1] (UCB #006 and UCB #192, CCK-8) was ≥ 20000 ng/mL. Also, the HGF secretion entry in data set [2] (pirfenidone 20 μg/ml) is on record as “reduced”; in data set [2] (pirfenidone 4 to 10 μg/ml), “did not affect”. In addition, in data set [3], the PGE2 secretion result was “no significant change”.
Take `CO[C@H]1C[C@@H]2CC[C@@H](C)[C@@](O)(O2)C(=O)C(=O)N2CCCC[C@H]2C(=O)O[C@H]([C@H](C)C[C@@H]2CC[C@@H](O)[C@H](OC)C2)CC(=O)[C@H](C)/C=C(\C)[C@@H](O)[C@@H](OC)C(=O)[C@H](C)C[C@H](C)/C=C/C=C/C=C/1C` [rapamycin]: the “concentration at which cytotoxicity was exhibited” value in data set [1] (mesenchymal stem cells, 24 hours, CCK-8) is ≥ 80 ng/mL.
